Earlier results in patent publication US10231995B2, “Selenium-containing compositions and uses thereof” (SELO MEDICAL GMBH, priority 2001, dated 2019).
Like-named read-outs stand apart in the source and are kept apart here.

O=[Se](O)O [selenite]
Eo standard redox potential (acidic medium): −0.740 (acidic medium) Volt | Eo standard redox potential (basic medium): +0.366 (basic medium) Volt
